# Source: ChEMBL document CHEMBL1129155, “Synthesis and antibacterial activity of cephalosporins having hydroxamic acid at C-7 position” (1996)
# How the values were obtained:
# Assay type in all cases: functional
# [1] = test system: Staphylococcus aureus; assay: Compound was evaluated for antibacterial activity against Staphylococcus aureus C2379 (MRSA).
# [2] = test system: Pseudomonas aeruginosa; assay: Compound was evaluated for antibacterial activity against Pseudomonas aeruginosa 9027.
# [3] = test system: Streptococcus pneumoniae; assay: Compound was evaluated for antibacterial activity against Streptococcus pneumoniae type I.
# [4] = test system: Streptococcus pyogenes; assay: Compound was evaluated for antibacterial activity against Streptococcus pyogenes A77.
# [5] = test system: Serratia marcescens; assay: Compound was evaluated for antibacterial activity against Serratia marcescens IFO 12648.
# [6] = test system: Escherichia coli; assay: Compound was evaluated for antibacterial activity against Escherichia coli DC 2.
# [7] = test system: Klebsiella pneumoniae; assay: Compound was evaluated for antibacterial activity against Klebsiella pneumoniae NCTC 9632.
# [8] = test system: Escherichia coli; assay: Compound was evaluated for antibacterial activity against Escherichia coli DC 0.
# [9] = test system: Pseudomonas aeruginosa; assay: Compound was evaluated for antibacterial activity against Pseudomonas aeruginosa 1771M.
# [10] = test system: Staphylococcus aureus; assay: Compound was evaluated for antibacterial activity against Staphylococcus aureus Smith.
# [11] = test system: Pseudomonas aeruginosa; assay: Compound was evaluated for antibacterial activity against Pseudomonas aeruginosa 1771.
# [12] = test system: Proteus vulgaris; assay: Compound was evaluated for antibacterial activity against Proteus vulgaris GN76.
# [13] = test system: Pseudomonas aeruginosa; assay: Compound was evaluated for antibacterial activity against Pseudomonas aeruginosa C-1198.
# [14] = test system: Enterobacter cloacae; assay: Compound was evaluated for antibacterial activity against Enterobacter cloacae P99.
Structure (SMILES),MIC [1],MIC [2],MIC [3],MIC [4],MIC [5],MIC [6],MIC [7],MIC [8],MIC [9],MIC [10],MIC [11],MIC [12],MIC [13],MIC [14]
CC(C)(O/N=C(\C(=O)N[C@@H]1C(=O)N2C(C(=O)[O-])=C(C[n+]3ccccc3)CS[C@H]12)c1csc(N)n1)C(=O)O [CEFTAZIDIME],50 µg/mL,3.12 µg/mL,0.195 µg/mL,0.098 µg/mL,0.098 µg/mL,0.098 µg/mL,0.049 µg/mL,0.195 µg/mL,0.391 µg/mL,6.25 µg/mL,0.781 µg/mL,0.049 µg/mL,> 100 µg/mL,> 100 µg/mL
CC(=O)N(O)CCO/N=C(\C(=O)N[C@@H]1C(=O)N2C(C(=O)[O-])=C(C[n+]3ccc(CN(O)C(C)=O)cc3)CS[C@H]12)c1csc(N)n1,50 µg/mL,50 µg/mL,0.049 µg/mL,0.007 µg/mL,12.5 µg/mL,0.391 µg/mL,0.781 µg/mL,12.5 µg/mL,6.25 µg/mL,12.5 µg/mL,25 µg/mL,6.25 µg/mL,> 100 µg/mL,50 µg/mL
CC(=O)N(O)CCO/N=C(\C(=O)N[C@@H]1C(=O)N2C(C(=O)[O-])=C(C[n+]3cccc4c3CCC4)CS[C@H]12)c1csc(N)n1,6.25 µg/mL,6.25 µg/mL,0.025 µg/mL,0.004 µg/mL,0.781 µg/mL,0.195 µg/mL,0.195 µg/mL,0.391 µg/mL,0.781 µg/mL,0.781 µg/mL,1.56 µg/mL,1.56 µg/mL,50 µg/mL,25 µg/mL
CC(=O)N(O)CCO/N=C(\C(=O)N[C@@H]1C(=O)N2C(C(=O)O)=C(CSc3nc(C)c(CC(=O)O)s3)CS[C@H]12)c1csc(N)n1,100 µg/mL,12.5 µg/mL,0.049 µg/mL,0.013 µg/mL,1.56 µg/mL,0.098 µg/mL,0.098 µg/mL,0.781 µg/mL,0.391 µg/mL,12.5 µg/mL,3.12 µg/mL,0.049 µg/mL,50 µg/mL,50 µg/mL

# Further compounds by falling MIC [1], results first:
MIC [1],MIC [2],MIC [3],MIC [4],MIC [5],MIC [6],MIC [7],MIC [8],MIC [9],MIC [10],MIC [11],MIC [12],MIC [13],MIC [14],Structure (SMILES)
12.5 µg/mL,12.5 µg/mL,0.025 µg/mL,0.025 µg/mL,3.12 µg/mL,1.56 µg/mL,0.025 µg/mL,1.56 µg/mL,3.12 µg/mL,1.56 µg/mL,3.12 µg/mL,3.12 µg/mL,50 µg/mL,50 µg/mL,CC(=O)N(O)CCO/N=C(\C(=O)N[C@@H]1C(=O)N2C(C(=O)[O-])=C(CSc3cccc4[n+]3CCN4)CS[C@H]12)c1csc(N)n1
12.5 µg/mL,6.25 µg/mL,0.049 µg/mL,0.007 µg/mL,0.391 µg/mL,0.195 µg/mL,0.098 µg/mL,0.781 µg/mL,0.391 µg/mL,3.12 µg/mL,0.781 µg/mL,0.781 µg/mL,25 µg/mL,25 µg/mL,CC(=O)N(O)CCO/N=C(\C(=O)N[C@@H]1C(=O)N2C(C(=O)[O-])=C(C[n+]3ccccc3)CS[C@H]12)c1csc(N)n1
